Measurements published in US20260258420A1, “COMPOSITIONS AND METHODS FOR THE TREATMENT OF HUMAN PAPILLOMAVIRUS-DRIVEN CANCERS” (priority 2023, published 2026).

Tests used:
Type in all cases: cell-based
[1] = test system: 16 HPV-positive and 17 HPV-negative HNSCC and cervical squamous cancer cell lines; test: High-throughput drug screen (HTDS), whole panel, comparison by HPV status; conditions: for efficacy in HPV-positive vs HPV-negative cell lines: AOC_LD as a dichotomous variable; for odds ratio: sensitivity in HPV-positive vs HPV-negative cell lines; for cell death: at concentrations known to inhibit mTOR
Method: (§1) The concordance correlation coefficient was computed to assess the reproducibility of the normalized growth rates of the 2 replicates. […] A chi-square test was applied to compare drug classification and the cluster membership. The Fisher exact test was applied to compare mutations status (wild-type and mutant) and drugs' response data (sensitive and resistant).
(§2) The effects of 864 unique drugs from 51 classes was tested in 16 HPV-positive and 17 HPV-negative HNSCC and cervical squamous cancer cell lines (Table 2) that were characterized previously (Kaiu, et al., Oncotarget 2017; 8(49):86369-83).

[2] = test system: 16 HPV-positive HNSCC and cervical squamous cancer cell lines; test: High-throughput drug screen (HTDS), cell death by AOC_LD, HPV-positive cell lines; conditions: for HPV positive Resistant (number of cell lines): resistant = AOC_LD 0; for HPV positive Sensitive (number of cell lines): sensitive = AOC_LD greater than 0
Method: as §1, §2

[3] = test system: 17 HPV-negative HNSCC and cervical squamous cancer cell lines; test: High-throughput drug screen (HTDS), cell death by AOC_LD, HPV-negative cell lines; conditions: for HPV negative Resistant (number of cell lines): resistant = AOC_LD 0; for HPV negative Sensitive (number of cell lines): sensitive = AOC_LD greater than 0
Method: as §1, §2

Row | Compound | efficacy in HPV-positive vs HPV-negative cell lines [1] | HPV positive Resistant (number of cell lines) [2] | HPV positive Sensitive (number of cell lines) [2] | HPV negative Resistant (number of cell lines) [3] | HPV negative Sensitive (number of cell lines) [3] | odds ratio [1] | cell death [1]
1 | CN(C)c1ccc(-c2nc3ncc(Cl)c(N4CCN(CC(=O)Nc5nccs5)CC4)c3[nH]2)cc1 [CCT129202] | tended to be more effective in HPV-positive cell lines | – | – | – | – | – | –
2 | O=C(O)[C@]1(Cc2cccc(Nc3nccs3)n2)CC[C@@H](Oc2cccc(Cl)c2F)CC1 [MK5108] | tended to be more effective in HPV-positive cell lines | – | – | – | – | – | –
3 | COc1cc2c(Nc3ccc(NC(=O)c4ccccc4)cc3)ncnc2cc1OCCCN1CCOCC1 [ZM447439] | tended to be more effective in HPV-positive cell lines | 6 | 10 | 14 | 3 | 7.24 | –
4 | CCn1cc(-c2ccnc3[nH]c(-c4cccc(CN(C)C)c4)cc23)c(-c2ccc(NC(=O)N(C)C)cc2)n1 [GSK1070916] | tended to be more effective in HPV-positive cell lines | 4 | 12 | 12 | 5 | – | –
5 | BLEOMYCIN | – | 6 | 10 | 13 | 4 | 5.12 | –
6 | Nc1nc(Nc2ccc(S(N)(=O)=O)cc2)nn1C(=O)c1c(F)cccc1F [JNJ7706621] | more effective in HPV-positive than in HPV-negative cell lines | 4 | 12 | 11 | 6 | – | –
7 | O=C(O)c1ccc(Nc2ncc3c(n2)-c2ccc(Cl)cc2C(c2c(F)cccc2F)=NC3)cc1 [MLN8054] | tended to be more effective in HPV-positive cell lines | – | – | – | – | – | –
8 | CNC(=O)c1ccccc1Sc1ccc2c(/C=C/c3ccccn3)n[nH]c2c1 [AXITINIB] | – | 8 | 8 | 16 | 1 | – | –
9 | CCS(=O)(=O)c1cccc(-c2cc(C(=O)NC3CCN(C)CC3)c(C)c3[nH]c4ncc(C)cc4c23)c1 [TAK901] | tended to be more effective in HPV-positive cell lines | – | – | – | – | – | –
10 | Nc1nc(F)nc2c1ncn2[C@@H]1O[C@H](CO)[C@@H](O)[C@@H]1O [FLUDARABINE] | – | 13 | 3 | 6 | 11 | – | –
11 | Cc1cc(Nc2cc(N3CCN(C)CC3)nc(Sc3ccc(NC(=O)C4CC4)cc3)n2)[nH]n1 [TOZASERTIB, tozasertib] | tended to be more effective in HPV-positive cell lines | 7 | 9 | 15 | 2 | – | –
12 | COC(=O)c1ccc2c(c1)NC(=O)/C2=C(\Nc1ccc(N(C)C(=O)CN2CCN(C)CC2)cc1)c1ccccc1 [NINTEDANIB] | – | 11 | 5 | 17 | 0 | Inf | –
13 | Cc1nc(N)sc1-c1ccnc(Nc2ccc(N3CCOCC3)cc2)n1 [CYC116] | tended to be more effective in HPV-positive cell lines | 7 | 9 | 15 | 2 | – | –
14 | CO[C@@H](C(=O)N1Cc2n[nH]c(NC(=O)c3ccc(N4CCN(C)CC4)cc3)c2C1)c1ccccc1 [danusertib] | tended to be more effective in HPV-positive cell lines | – | – | – | – | – | –
15 | COc1ccc([C@@H]2CC(=O)c3c(O)cc(O[C@@H]4O[C@H](CO[C@@H]5O[C@@H](C)[C@H](O)[C@@H](O)[C@H]5O)[C@@H](O)[C@H](O)[C@H]4O)cc3O2)cc1O [hesperidin] | more effective in HPV-positive than in HPV-negative cell lines | – | – | – | – | – | –
16 | O=C(Nc1cccc(Nc2ncc(Br)c(NCCc3cnc[nH]3)n2)c1)N1CCCC1 [BX912] | – | 8 | 8 | 16 | 1 | 14.66 | –
17 | O=C(Nc1cccc(Cl)c1)Nc1ncc(CCNc2ncnc3ccsc23)s1 [SNS314] | tended to be more effective in HPV-positive cell lines | 8 | 8 | 15 | 2 | – | –

Row | Compound | efficacy in HPV-positive vs HPV-negative cell lines [1] | HPV positive Resistant (number of cell lines) [2] | HPV positive Sensitive (number of cell lines) [2] | HPV negative Resistant (number of cell lines) [3] | HPV negative Sensitive (number of cell lines) [3] | odds ratio [1] | cell death [1]
18 | CC(C)C[C@H](NC(=O)[C@H](CCc1ccccc1)NC(=O)CN1CCOCC1)C(=O)N[C@@H](Cc1ccccc1)C(=O)N[C@@H](CC(C)C)C(=O)[C@@]1(C)CO1 [CARFILZOMIB] | – | 0 | 16 | 5 | 12 | Inf | –
19 | COc1cc2c(c(OC)c1OC)-c1ccc(OC)c(=O)cc1[C@@H](NC(C)=O)CC2 [COLCHICINE] | – | – | 15 | – | 10 | – | –
20 | O=C(Nc1c[nH]nc1-c1nc2ccc(CN3CCOCC3)cc2[nH]1)NC1CC1 [AT9283] | – | 3 | 13 | 10 | 7 | – | –
21 | Cc1csc(-c2nnc(Nc3ccc(Oc4ncccc4-c4ccnc(N)n4)cc3)c3ccccc23)c1 [AMG900] | tended to be more effective in HPV-positive cell lines | – | – | – | – | – | –
22 | COc1cc(NS(C)(=O)=O)ccc1Nc1c2ccccc2nc2ccccc12 [AMSACRINE] | – | 5 | 11 | 15 | 2 | – | –
23 | CCCCCCOC(=O)[C@]1(O)C[C@@H]2O[C@@]1(C)n1c3ccccc3c3c4c(c5c6ccccc6n2c5c31)C(=O)NC4 [KT5720] | – | 12 | 4 | 17 | 0 | Inf | –
24 | CC(=O)NCC(=O)N1[C@@H]2CC[C@H]1c1ccc(Nc3ncc(C(F)(F)F)c(NC4CCC4)n3)cc12 [PF03814735] | tended to be more effective in HPV-positive cell lines | 8 | 8 | 15 | 2 | 7.02 | –
25 | CO[C@H]1C[C@@H]2CC[C@@H](C)[C@@](O)(O2)C(=O)C(=O)N2CCCC[C@H]2C(=O)O[C@H]([C@H](C)C[C@@H]2CC[C@@H](OP(C)(C)=O)[C@H](OC)C2)CC(=O)[C@H](C)/C=C(\C)[C@@H](O)[C@@H](OC)C(=O)[C@H](C)C[C@H](C)/C=C/C=C/C=C/1C [ridaforolimus] | – | – | – | – | – | – | caused cell death only in a single cell line
26 | COc1ccc(-c2ccc3c(N4CCOC[C@@H]4C)nc(N4CCOC[C@@H]4C)nc3n2)cc1CO [AZD8055] | – | 11 | 5 | 17 | 0 | Inf | –
27 | CO[C@H]1C[C@@H]2CC[C@@H](C)[C@@](O)(O2)C(=O)C(=O)N2CCCC[C@H]2C(=O)O[C@H]([C@H](C)C[C@@H]2CC[C@@H](OCCO)[C@H](OC)C2)CC(=O)[C@H](C)/C=C(\C)[C@@H](O)[C@@H](OC)C(=O)[C@H](C)C[C@H](C)/C=C/C=C/C=C/1C [everolimus] | – | – | – | – | – | – | caused cell death only in a single cell line
28 | Clc1ccc(C2(c3ccc(-c4cn[nH]c4)cc3)CCNCC2)cc1 [AT7867] | – | 12 | 4 | 17 | 0 | Inf | –
29 | COc1cc([C@@H]2c3cc4c(cc3[C@@H](O[C@@H]3O[C@@H]5CO[C@@H](C)O[C@H]5[C@H](O)[C@H]3O)[C@H]3COC(=O)[C@H]23)OCO4)cc(OC)c1O [ETOPOSIDE] | – | 7 | 9 | 15 | 2 | – | –
30 | Cc1cc(CN2CCN(c3c(Br)cnc4nc(-c5ccc(N6CCN(C)CC6)cc5)[nH]c34)CC2)no1 [CCT137690] | tended to be more effective in HPV-positive cell lines | – | – | – | – | – | –
31 | WYE354 | – | 10 | 6 | 16 | 1 | 8.98 | –
32 | CCc1cccc(CC)c1NC(=O)N1Cc2n[nH]c(NC(=O)c3ccc(N4CCN(C)CC4)cc3)c2C1 [PHA680632] | tended to be more effective in HPV-positive cell lines | – | – | – | – | – | –
33 | CN1CCN(c2ccc3nc(-c4c(N)c5c(F)cccc5[nH]c4=O)[nH]c3c2)CC1 [DOVITINIB] | – | 10 | 6 | 16 | 1 | – | –
